Consider four molecules from patent US20240239823A1, “PHOSPHINATE ESTER-CONTAINING DYES HAVING TUNABLE PROPERTIES AND METHODS OF MAKING THE SAME” (University of Virginia Patent Foundation, priority 2021, published 2024).

Data set [1] is described as follows: Aggregation in aqueous solution (absorbance versus concentration, SDS addition). The conditions noted are these: for effect of surfactant on absorbance: addition of 0.1% SDS, water; for aggregation / H-aggregate formation (blue-shifted absorbance band): aqueous solutions; for aggregation / H-aggregate formation (blue-shifted absorbance band) / linearity of absorbance versus concentration: increasing concentrations; for linearity of absorbance versus concentration: in water. The data set is classed as physicochemical. From the text: FIG. 2.2A: The structure of methylene blue (MB) and NR751.

The nature of data set [2]: Quenching of dye absorbance by glutathione (GSH). The data set is classed as physicochemical. The conditions noted are these: absence versus presence of GSH. The text has this: The absorbance of NR708 in the absence or presence of GSH is shown.
In order to improve the chemical stability of NR dyes to nucleophiles found in biological systems, such as glutathione (GSH), bulky substituents were introduced to protect the C9 position of the dyes from nucleophilic attack. Accordingly, derivatives of NR700 and NR666, termed NR708 and NR675, respectively, were synthesized that bear bulky substituents on the pendant phenyl ring proximal to the C9 position of the dye (FIG. 3.1). […] The improved chemical stability of these dyes will provide brighter probes for imaging applications.

Another data set concerns RAW 264.7 cells. Nature of the data set: Confocal imaging of RAW 264.7 cells with or without stimulation to produce endogenous HOCl. The conditions noted are these: 50 μM; cells producing HOCl. The data set is classed as cell-based. Here is the method: FIGS. 5.2A-5.2C show phosphinate-containing dyes as gated small molecule delivery vehicles for cytotoxic compounds in cells. FIG. 5.2A: The structure of NR—HOCl-1541B (left). Selective reaction with HOCl results in the gated release of 1541B, a cytotoxic compound, and a fluorescent NR dye (right) FIG. 5.2B: Viability of RAW 264.7 macrophages in the presence or absence of stimulation to produce endogenous HOCl (LPS and PMA), cells were incubated with 50 μM 1541B or NR—HOCl-1541B where indicated. FIG. 5.2C: Confocal imaging of RAW 264.7 cells incubated with 50 μM NR—HOCl-1541B in the presence or absence of stimulation to produce endogenous HOCl.

Consider `CN(C)c1ccc2nc3ccc(=[N+](C)C)cc-3sc2c1` [MB, methylene blue, reference compound], for which, in data set [1], the “effect of surfactant on absorbance” value is recorded as “reduces the intensity of the blue-shifted H-Aggregate absorption band”, the “aggregation / H-aggregate formation (blue-shifted absorbance band)” value is on record as “increase in H-aggregate formation” and the “linearity of absorbance versus concentration” value was “clear deviation from linearity”.

As to `COc1cccc(OC)c1C1=C2C=CC(=[N+](C)C)C=C2P(=O)(O)c2cc(N(C)C)ccc21` [NR675], the “quenching / change of absorbance in the presence of glutathione (GSH)” value in data set [2] is recorded as “virtually no quenching”.

Consider `CC1=CC(=[N+](C)C)C=C2C1=Nc1c(C)cc(N(C)C)cc1P2(=O)O` [NR751], for which, in data set [1], the “effect of surfactant on absorbance” value is reported as “No change is observed in the absorbance”, the “aggregation / H-aggregate formation (blue-shifted absorbance band)” value is given as “significantly reduced aggregation” and the “linearity of absorbance versus concentration” value is reported as “clear linear increase in absorbance versus concentration”.

In the case of `CN(C)c1ccc2c(c1)P(=O)(Oc1cccc3cc(C(=O)Nc4cccc(-c5cn6ccccc6n5)c4)c(=O)oc13)c1cc(N(C)C)ccc1C21SCc2ccccc21` (centres unmarked) [NR—HOCl-1541B], in the data set with RAW 264.7 cells, the “fluorescence and payload delivery in cells” value is “Clear evidence of fluorescence, and payload delivery”.
